According to patent US20090155339A1, “Biocompatible Antimicrobial Filament Material” (AESCULAP AG & CO. KG, priority 2005, published 2009):

Test system: L929 cells (DSM ACC2, mouse fibroblasts)
Assay: Cytotoxicity of PHMB-HCl coated thread extracts, growth inhibition (BCA Assay method)
Format: cell-based
Details: positive control 7.5% v/v DMSO, 72 h
Procedure: The test was carried out in accordance with the standard EN ISO/IEC 17025. The thread pieces were extracted in the absence of light with the DMEM-FBS cell culture medium at 37±2° C. for 7 days. The absorbed DMEM-FBS was made up to a volume such that the surface/volume ratio was 9 cm^2/ml. As a negative control, DMEM-FBS was incubated at 37±2° C. for 7 days without test material. 7.5% v/v DMSO was used as positive control. Extracts and negative controls were diluted in five steps with DMEM-FBS solution (dilution ratio 2:3). 100 μl of the dilute solutions of the extracts and of the negative controls and also 100 μl of the positive controls were added in triplicate to wells in a […]. Thereafter, 50 μl of a freshly prepared cell suspension (7.5×10^4 cells/ml) were added to all wells except those used for background determination. The final concentrations of the extracts were accordingly 66.7%, 44.5%, 29.6%, 19.8%, 13.2% and 8.8% v/v. The plates were then incubated at 37±2° C. in humidified air (5% CO2/95% air) for 72±2 hours. Thereafter, the protein content of the samples was determined calorimetrically at a wavelength of 550 nm (BCA Assay method). The test organisms used were L929 cells (DSM ACC2, mouse fibroblasts, clone of the L strand). […] FBS and P/S from Biochrom (Berlin) and BCA protein quantification kit from Interchim (France).

C[S+](C)[O-] [Positive control, DMSO] gave a Growth inhibition of 81%.
